PubChem BioAssay (NCI)
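At the GI50, growth is halved. At the TGI there is no net growth.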

Columns and labels:
Assay in all cases: inhibition of tumour cell growth, NCI panel, 384-well format; in the data active = GI50 below about 0.43 µM; inactive = the rest
[1] = tested on: 786-0 renal
[2] = tested on: A498 renal
[3] = tested on: A549 NSCLC
[4] = tested on: ACHN renal
[5] = tested on: BT-549 breast
[6] = tested on: CAKI-1 renal
[7] = tested on: CCRF-CEM leukemia
[8] = tested on: COLO 205 colon
[9] = tested on: DU-145 prostate
[10] = tested on: EKVX NSCLC
[11] = tested on: HCC-2998 colon
[12] = tested on: HCT-116 colon
[13] = tested on: HCT-15 colon
[14] = tested on: HL-60(TB) leukemia
[15] = tested on: HOP-62 NSCLC
[16] = tested on: HOP-92 NSCLC
[17] = tested on: HT29 colon
[18] = tested on: IGROV1 ovarian
[19] = tested on: K-562 leukemia
[20] = tested on: KM12 colon
[21] = tested on: LOX IMVI melanoma
[22] = tested on: M14 melanoma
[23] = tested on: MALME-3M melanoma
[24] = tested on: MCF7 breast
[25] = tested on: MDA-MB-231 breast
[26] = tested on: MDA-MB-435 melanoma
[27] = tested on: MDA-MB-468 breast
[28] = tested on: MOLT-4 leukemia
[29] = tested on: NCI-H226 lung
[30] = tested on: NCI-H23 lung
[31] = tested on: NCI-H322M lung
[32] = tested on: NCI-H460 NSCLC
[33] = tested on: NCI-H522 lung
[34] = tested on: NCI/ADR-RES ovarian
[35] = tested on: OVCAR-3 ovarian
[36] = tested on: OVCAR-4 ovarian
[37] = tested on: OVCAR-5 ovarian
[38] = tested on: OVCAR-8 ovarian
[39] = tested on: PC-3 prostate
[40] = tested on: RPMI-8226 leukemia
[41] = tested on: RXF 393 renal
[42] = tested on: SF-268 CNS
[43] = tested on: SF-295 CNS
[44] = tested on: SF-539 CNS
[45] = tested on: SK-MEL-2 melanoma
[46] = tested on: SK-MEL-28 melanoma
[47] = tested on: SK-MEL-5 melanoma
[48] = tested on: SK-OV-3 ovarian
[49] = tested on: SN12C renal
[50] = tested on: SNB-19 CNS
[51] = tested on: SNB-75 CNS
[52] = tested on: SR leukemia
[53] = tested on: SW-620 colon
[54] = tested on: T-47D breast
[55] = tested on: TK-10 renal
[56] = tested on: U251 glioblastoma
[57] = tested on: UACC-257 melanoma
[58] = tested on: UACC-62 melanoma
[59] = tested on: UO-31 renal

C=CC(=O)N1CC[C@@H](Oc2nc(Nc3ccc(N4CCC(N5CCN(C)CC5)CC4)cc3)c(C(N)=O)nc2CC)C1
inactive: GI50 [1] > 100 µM | GI50 [2] > 100 µM | GI50 [3] > 100 µM | GI50 [4] > 100 µM | GI50 [5] > 100 µM | GI50 [6] > 100 µM | GI50 [7] > 100 µM | GI50 [8] > 100 µM | GI50 [9] > 100 µM | GI50 [10] > 100 µM | GI50 [11] > 100 µM | GI50 [12] > 100 µM | GI50 [13] > 100 µM | GI50 [14] > 100 µM | GI50 [15] > 100 µM | GI50 [16] > 100 µM | GI50 [17] > 100 µM | GI50 [18] > 100 µM | GI50 [19] > 88.9 µM | GI50 [20] > 100 µM | GI50 [21] > 100 µM | GI50 [22] > 100 µM | GI50 [23] > 100 µM | GI50 [24] > 100 µM | GI50 [25] > 100 µM | GI50 [26] > 100 µM | GI50 [27] > 100 µM | GI50 [28] > 100 µM | GI50 [29] > 100 µM | GI50 [30] > 100 µM | GI50 [31] > 100 µM | GI50 [32] > 100 µM | GI50 [33] > 100 µM | GI50 [34] > 100 µM | GI50 [35] > 100 µM | GI50 [36] > 100 µM | GI50 [37] > 100 µM | GI50 [38] > 100 µM | GI50 [39] > 100 µM | GI50 [40] > 100 µM | GI50 [41] > 100 µM | GI50 [42] > 100 µM | GI50 [43] > 100 µM | GI50 [44] > 100 µM | GI50 [45] > 100 µM | GI50 [46] > 100 µM | GI50 [47] > 100 µM | GI50 [48] > 100 µM | GI50 [49] > 100 µM | GI50 [50] > 100 µM | GI50 [51] > 100 µM | GI50 [52] > 87.9 µM | GI50 [53] > 100 µM | GI50 [54] > 100 µM | GI50 [55] > 100 µM | GI50 [56] > 100 µM | GI50 [57] > 100 µM | GI50 [58] > 100 µM | GI50 [59] > 100 µM
> 100 µM: TGI [1] | TGI [2] | TGI [3] | TGI [4] | TGI [5] | TGI [6] | TGI [7] | TGI [8] | TGI [9] | TGI [10] | TGI [11] | TGI [12] | TGI [13] | TGI [14] | TGI [15] | TGI [16] | TGI [17] | TGI [18] | TGI [19] | TGI [20] | TGI [21] | TGI [22] | TGI [23] | TGI [24] | TGI [25] | TGI [26] | TGI [27] | TGI [28] | TGI [29] | TGI [30] | TGI [31] | TGI [32] | TGI [33] | TGI [34] | TGI [35] | TGI [36] | TGI [37] | TGI [38] | TGI [39] | TGI [40] | TGI [41] | TGI [42] | TGI [43] | TGI [44] | TGI [45] | TGI [46] | TGI [47] | TGI [48] | TGI [49] | TGI [50] | TGI [51] | TGI [52] | TGI [53] | TGI [54] | TGI [55] | TGI [56] | TGI [57] | TGI [58] | TGI [59]
